Source: patent publication US20240082228A1, “SARS-COV-2 THERAPEUTICS” (priority 2021, published 2024)
Where “and” joins values, the source holds several entries; their conditions need not be identical. Equal values may be shown once.

Columns and labels:
SARS-CoV-2 [1] = assay type: cell-based; conditions: HEK293T cells stably expressing ACE2
HEK293T-ACE2 cells = conditions: up to 10 mM compound
[2] = target: benzodiazepine binding site of human GABAA receptors containing either an α1, α2, α3 or α5 subunit; conditions: read-out: affinity; cited from earlier work
GABAA receptors = conditions: cited from earlier work
SARS-CoV-2 [3] = assay: microbe, parasite or virus in culture; assay type: cell-based
[4] = 1 uM, single replicate, relative to negative control DMSO
[5] = 5 uM, single replicate, relative to negative control DMSO

CN[C@@H](C)C(=O)N[C@H](C(=O)N1CCC[C@H]1C(=O)N[C@H]1c2ccccc2C[C@H]1OCC#CC#CCO[C@@H]1Cc2ccccc2[C@@H]1NC(=O)[C@@H]1CCCN1C(=O)[C@@H](NC(=O)[C@H](C)NC)C1CCCCC1)C1CCCCC1 [AZD5582]
antiviral activity (SARS-CoV-2 [1]): excellent activity
cytotoxicity (HEK293T-ACE2 cells): no observable cytotoxicity

CN[C@@H](C)C(=O)N[C@H]1CCS[C@H]2CC(C)(C)[C@@H](C(=O)N[C@H]3c4ccccc4C[C@H]3OCC#CC#CCO[C@@H]3Cc4ccccc4[C@@H]3NC(=O)[C@H]3N4C(=O)[C@@H](NC(=O)[C@H](C)NC)CCS[C@H]4CC3(C)C)N2C1=O [Ciapavir]
antiviral activity (SARS-CoV-2 [1]): excellent activity
cytotoxicity (HEK293T-ACE2 cells): no observable cytotoxicity

CC(C)CCC(=O)CC1c2ccccc2C(=O)N1c1ccc2ccc(Cl)nc2n1 (centres unmarked) [Pagoclone]
Ki [2]: 0.7 to 9.1 nM
efficacy at α1-, α2- and α5-containing GABAA receptors (GABAA receptors; α1-, α2- and α5-containing): partial agonist
efficacy at receptors containing an α3 subunit (GABAA receptors; α3 subunit): full agonist

osanetant
HIT (2 Std, 1 uM) (SARS-CoV-2 [3]; 1 uM): HIT
Average Infection (1 uM) (SARS-CoV-2 [3]; 1 uM, average log2FC infection (n=3) relative to DMSO): −0.8388
% Infection (1 uM) (SARS-CoV-2 [3]; 1 uM, single replicate of triplicate): 13.75% and 14.37% and 16.0359%
Normalized Infection (1 uM) (SARS-CoV-2 [3]; [4]): 0.5233 and 0.547 and 0.6105
log2FC Infection (1 uM) (SARS-CoV-2 [3]; [4]): −0.9343 and −0.8703 and −0.7119
HIT (2 Stdv, 5 uM) (SARS-CoV-2 [3]; 5 uM): HIT
Average Infection (5 uM) (SARS-CoV-2 [3]; 5 uM, average log2FC infection (n=3) relative to DMSO): −3.987
% Infection (5 uM) (SARS-CoV-2 [3]; 5 uM, single replicate of triplicate): 0.9628% and 1.307% and 0.7276%
Normalized Infection (5 uM) (SARS-CoV-2 [3]; [5]): 0.06253 and 0.08489 and 0.04725
log2FC Infection (5 uM) (SARS-CoV-2 [3]; [5]): −3.999 and −3.558 and −4.403
HIT (SARS-CoV-2 [3]; overall, 1 or 5 uM): Yes
Toxic (1 uM): 0 (non-toxic (Normalized Cell number>0.65)
Toxic (5 uM): 0 (non-toxic (Normalized Cell number>0.65)
Average Cell Number (1 uM) (compound at 1 uM, average of normalized cell number, n=3, relative to DMSO): 0.6882
Cell Number (1 uM) (compound at 1 uM, single replicate, raw cell count): 4045 and 3932 and 4122
Normalized Cell Number (1 uM) (compound at 1 uM, single replicate, relative to negative control DMSO): 0.6903 and 0.671 and 0.7034
Average Cell Number (5 uM) (compound at 5 uM, average of normalized cell number, n=3, relative to DMSO): 0.7783
Cell Number (5 uM) (compound at 5 uM, single replicate, raw cell count): 4466 and 4973 and 4398
Normalized Cell Number (5 uM) (compound at 5 uM, single replicate, relative to negative control DMSO): 0.7536 and 0.8392 and 0.7421
